Data set [1] relates to PBMCs. The experiment in a line: in vitro. The settings on record: 48 h. How it is done: (§1) To represent the overall inhibitory activity of each compound, viability was calculated as the mean of at least three independent measurements. The purpose was to determine the optimal non-toxic concentration for subsequent use in radioprotection tests.
(§2) Whole blood from a healthy donor was diluted 1 : 1 with Dulbecco's phosphate buffered saline (Sigma-Aldrich, St. Louis, MO, USA). The diluted blood was slowly and carefully pipetted onto an equal volume of Histopaque®-1077 (Sigma-Aldrich, St. Louis, MO, USA). The entire process was carried out at room temperature. Subsequently, centrifugation was performed at 700 × g with the slowest acceleration and deceleration for 20 min at 20 °C. The resulting PBMCs ring was aspirated and centrifuged at 450 × g for 10 min at 20 °C with normal acceleration and deceleration. The cells were washed twice with RPMI 1640 medium with GlutaMAX (Gibco by Thermo Fisher Scientific, Waltham, MA, USA). After the second wash and centrifugation, the cells were diluted with cultivation medium RPMI 1640 with GlutaMAX supplemented with 20% inactivated fetal bovine serum (both Gibco by Thermo Fisher Scientific, Waltham, MA, USA) and 1% antibiotic solution of penicillin, 10 000 IU ml^−1 and streptomycin, 10 mg ml^−1 (Sigma-Aldrich, St. Louis, MO, USA). At the end, the cells were counted using Türk's solution.
(§3) PBMCs were plated into 96-well plates at a cell density of approximately 5 × 10^4 cells per well in a volume of 100 μl. Cells were treated with tested compounds in concentrations of 10, 20, 50, 100, 200, 500, and 1000 μM to determine the optimal non-toxic concentration for each. Cells were incubated for 48 h in a humidified atmosphere with 5% CO2 at 37 °C. 20 μl of MTS – CellTiter 96® AQueous One Solution Cell Proliferation Assay (Promega, Madison, WI, USA) was added to each well 4 h before spectrometric analysis. Cell viability was then determined by measuring absorbance at 490 nm using the Synergy H1 instrument by BioTek. The absorbance of the cell-free culture medium was used as a blank and subtracted from the absorbance readings obtained during the experiment. The viability of untreated control cells was set as 100%.

Data set [2] in a line: in vitro. The settings on record: male, human. On the procedure: as §1, §2, §3
Data set [3] in a line: WST-1 proliferation assay, PANC-1. It counts as cell-based. Particulars: human, PANC-1 cells (pancreas epithelioid carcinoma), vs 0.1% DMSO control = 100%, mean ± standard deviation. On the procedure: (§4) A thorough analysis of antiproliferative activity was performed across various cell culture types representing different histotypes: leukemia (Jurkat, MOLT-4), lung adenocarcinoma (A549), colorectal adenocarcinoma (HT-29), pancreatic carcinoma (PANC-1), breast adenocarcinoma (MCF-7), osteosarcoma (SAOS-2), and one non-cancerous cell line (fetal lung fibroblasts MRC-5). The cell lines were exposed to the newly synthesized compounds at a concentration of 100 μM for 48 h in a single-dose treatment. Changes in cell proliferation compared to the vehicle 0.1% dimethyl sulfoxide (DMSO) control were determined using the WST-1 assay, which is based on mitochondrial dehydrogenase metabolic activities. […] The overall cytotoxic activity of each compound was expressed as growth percent (GP) – the mean of the proliferation of all cell lines treated with the same compound.
(§5) Selected human tumor and non-tumor cell lines Jurkat (acute T-cell leukemia), MOLT-4 (acute lymphoblastic leukemia), A549 (lung carcinoma), HT-29 (colorectal adenocarcinoma), PANC-1 (pancreas epithelioid carcinoma), MCF-7 (breast adenocarcinoma), SAOS-2 (osteosarcoma) and MRC-5 (normal lung fibroblasts) were purchased from either American Type Culture Collection (ATCC; VA, USA) or Sigma-Aldrich (St. Louis, MO, USA) and cultured according to the provider's culture method guidelines. All cell lines were maintained at 37 °C in a humidified 5% carbon dioxide and 95% air incubator. Cells in the maximum range of either 10 passages for the adherent cell lines (A549, HT-29, PANC-1, MCF-7, SAOS-2, and MRC-5), or 20 passages for suspension cell lines (Jurkat, MOLT-4,) and in an exponential growth phase were used for this study. Screening of the antiproliferative effect and growth percent calculation were conducted as follows: each cell line was seeded at previously established optimal density (1–50 × 10^3 cells per well) in a 96-well plate (TPP, Trasadingen, Switzerland) and cells were allowed to settle overnight. Cells were treated for 48 h with compounds at a final concentration of 100 μM. At the end of the cultivation period, the WST-1 proliferation assay (Roche, Basel, Switzerland) was performed according to the manufacturer's protocol. The absorbance was measured at 440 nm using a Tecan Spark multimode microplate reader (Tecan, Mannedorf, Switzerland). Each value is the mean of three independent experiments and represents the percentage of proliferation (100% cell proliferation for 0.1% DMSO mock-treated control cells). The GP value was calculated for each compound tested. GP represents the mean of the percentage proliferation decrease of all cell lines treated with the same compound.
(In general: Tetrazolium dyes change colour on reduction, which living cells bring about.)

Data set [4] can be described thus: WST-1 proliferation assay, Jurkat. It counts as cell-based. The settings on record: human, Jurkat cells (acute T-cell leukemia), vs 0.1% DMSO control = 100%, mean ± standard deviation. On the procedure: as §4, §5
Data set [5] is described as follows: WST-1 proliferation assay, MOLT-4. In kind it is cell-based. Particulars: human, MOLT-4 cells (acute lymphoblastic leukemia), vs 0.1% DMSO control = 100%, mean ± standard deviation. How it is done:
as §4, §5

The mark [6] stands for this setting: peripheral blood mononuclear cells (PBMCs).

Molecules are shown by their SMILES.

By viability is commonly meant a read-out of living cells in per cent, often relative to untreated cells.

Consider `COc1cc([N+](=O)[O-])ccc1OCC(O)CN1CCN(CCO)CC1` (centres unmarked) [Compound 1, 1-(4-(2-Hydroxyethyl)piperazin-1-yl)-3-(2-methoxy-4-nitrophenoxy)propan-2-ol], for which the “Optimal non-toxic concentration (PBMC viability not below 100% at 0.05 significance level and higher than 90%)” value in data set [1] (male, human) was 500 µM. Besides, in data set [2], the viability at 48 h, 10 µM turned out to be 114 ± 14%; the viability at 48 h, 20 µM is 110 ± 11%; the viability at 48 h, 50 µM was 111 ± 15%; the viability at 48 h, 100 µM was found to be 101 ± 17%. Further, in data set [2], the viability at 48 h, 200 µM was found to be 102 ± 21%; the viability at 48 h, 500 µM turned out to be 97 ± 22%; the viability at 48 h, 1000 µM stood at 60 ± 10%. Besides, in data set [3], the viability at 48 h, 100 µM turned out to be 108 ± 3%. Besides, in data set [4], the viability at 48 h, 100 µM was 91 ± 2%. The viability at 48 h, 100 µM in data set [5] was found to be 92 ± 8%.

As to `NCCCNCCS` [WR1065, reference compound], the “Decrease in cell viability of PBMCs” value in data set [1] (10 μM (lowest tested concentration)) is 43%. Further, in data set [2], the viability at 48 h, 10 µM worked out at 57 ± 39%; the viability at 48 h, 20 µM was 47 ± 34%; the viability at 48 h, 50 µM is 19 ± 17%; the viability at 48 h, 100 µM is 16 ± 14%. In data set [2], the viability at 48 h, 200 µM was 21 ± 8% and the viability at 48 h, 500 µM is 27 ± 9%. Also, in data set [3], the viability at 48 h, 100 µM is 3 ± 1%. In addition, the viability at 48 h, 100 µM in data set [4] amounted to 1%. Besides, in data set [5], the viability at 48 h, 100 µM was 3 ± 3%.

Consider `O=[N+]([O-])c1ccc(OCC(O)CN2CCN(CCO)CC2)c(F)c1` (centres unmarked) [Compound 3, 1-(4-(2-Hydroxyethyl)piperazin-1-yl)-3-(2-fluoro-4-nitrophenoxy)propan-2-ol], for which the “Optimal non-toxic concentration (PBMC viability not below 100% at 0.05 significance level and higher than 90%)” value in data set [1] (male, human) came to 500 µM. Further, in data set [2], the viability at 48 h, 10 µM is 98 ± 5%; the viability at 48 h, 20 µM was found to be 95 ± 14%; the viability at 48 h, 50 µM was found to be 90 ± 9%; the viability at 48 h, 100 µM was found to be 92 ± 6%. Further, in data set [2], the viability at 48 h, 200 µM is 92 ± 5%; the viability at 48 h, 500 µM is 92 ± 9%; the viability at 48 h, 1000 µM worked out at 81 ± 11%. Moreover, in data set [3], the viability at 48 h, 100 µM stood at 90 ± 4%. In addition, the viability at 48 h, 100 µM in data set [4] came out at 92 ± 4%. The viability at 48 h, 100 µM in data set [5] is 84 ± 11%.

With `COc1ccc(OCC(O)CN2CCN(CCO)CC2)c([N+](=O)[O-])c1` (centres unmarked) [Compound 2, 1-(4-(2-Hydroxyethyl)piperazin-1-yl)-3-(4-methoxy-2-nitrophenoxy)propan-2-ol], in data set [1] (male, human), the “Optimal non-toxic concentration (PBMC viability not below 100% at 0.05 significance level and higher than 90%)” value worked out at 500 µM. Also, in data set [2], the viability at 48 h, 10 µM is 102 ± 12%; the viability at 48 h, 20 µM came out at 100 ± 11%; the viability at 48 h, 50 µM was determined as 99 ± 6%; the viability at 48 h, 100 µM came to 98 ± 8%. In data set [2], the viability at 48 h, 200 µM is 99 ± 11%; the viability at 48 h, 500 µM was 93 ± 3%; the viability at 48 h, 1000 µM was determined as 78 ± 4%. Further, in data set [3], the viability at 48 h, 100 µM is 104 ± 3%. The viability at 48 h, 100 µM in data set [4] came out at 98 ± 3%. Besides, the viability at 48 h, 100 µM in data set [5] was 90 ± 7%.

In the case of `O=[N+]([O-])c1cc(OCC(O)CN2CCN(CCO)CC2)ccc1Cl` (centres unmarked) [Compound 5, 1-(4-(2-Hydroxyethyl)piperazin-1-yl)-3-(4-chloro-3-nitrophenoxy)propan-2-ol], the “Optimal non-toxic concentration (PBMC viability not below 100% at 0.05 significance level and higher than 90%)” value in data set [1] (male, human) amounted to 200 µM. Further, in data set [2], the viability at 48 h, 10 µM was found to be 121 ± 25%; the viability at 48 h, 20 µM was 99 ± 8%; the viability at 48 h, 50 µM stood at 111 ± 7%; the viability at 48 h, 100 µM came out at 102 ± 9%. In data set [2], the viability at 48 h, 200 µM came to 107 ± 5%; the viability at 48 h, 500 µM stood at 79 ± 3%; the viability at 48 h, 1000 µM was determined as 44 ± 11%. Moreover, the viability at 48 h, 100 µM in data set [3] amounted to 100 ± 3%. Besides, the viability at 48 h, 100 µM in data set [4] amounted to 85 ± 3%. The viability at 48 h, 100 µM in data set [5] came to 84 ± 8%.

Take `OCCN1CCN(CC(O)COc2cccc(Cl)c2)CC1` (centres unmarked) [Compound 6, 1-(4-(2-Hydroxyethyl)piperazin-1-yl)-3-(3-chlorophenoxy)propan-2-ol]: the “Optimal non-toxic concentration (PBMC viability not below 100% at 0.05 significance level and higher than 90%)” value in data set [1] (male, human) amounted to 500 µM. In addition, in data set [2], the viability at 48 h, 10 µM was 94 ± 12%; the viability at 48 h, 20 µM came out at 96 ± 5%; the viability at 48 h, 50 µM came out at 99 ± 4%; the viability at 48 h, 100 µM came out at 99 ± 7%. In data set [2], the viability at 48 h, 200 µM amounted to 96 ± 6%; the viability at 48 h, 500 µM came out at 94 ± 7%; the viability at 48 h, 1000 µM came to 51 ± 4%. Further, in data set [3], the viability at 48 h, 100 µM is 94 ± 3%. In addition, the viability at 48 h, 100 µM in data set [4] worked out at 89 ± 5%. Also, the viability at 48 h, 100 µM in data set [5] stood at 89 ± 16%.

Turning to `OCCN1CCN(CC(O)COc2ccc(F)cc2)CC1` (centres unmarked) [Compound 4, 1-(4-(2-Hydroxyethyl)piperazin-1-yl)-3-(4-fluorophenoxy)propan-2-ol], the “Optimal non-toxic concentration (PBMC viability not below 100% at 0.05 significance level and higher than 90%)” value in data set [1] (male, human) worked out at 1000 µM. In data set [2], the viability at 48 h, 10 µM amounted to 104 ± 18%; the viability at 48 h, 20 µM was 103 ± 26%; the viability at 48 h, 50 µM is 112 ± 30%; the viability at 48 h, 100 µM came out at 107 ± 30%. Also, in data set [2], the viability at 48 h, 200 µM came out at 110 ± 33%; the viability at 48 h, 500 µM was determined as 110 ± 28%; the viability at 48 h, 1000 µM was 105 ± 10%; the viability at 48 h, 2000 µM stood at 53 ± 5%. The viability at 48 h, 5000 µM in data set [2] turned out to be 39 ± 5%. Besides, the viability at 48 h, 100 µM in data set [3] came out at 97 ± 1%. Besides, the viability at 48 h, 100 µM in data set [4] came to 100 ± 3%. In addition, the viability at 48 h, 100 µM in data set [5] came out at 102 ± 16%.

Consider `NCCCNCCSP(=O)(O)O` [WR2721, amifostine, reference compound], for which the “Change of PBMC viability (in words)” value in data set [1] (20 μM) is “significant decrease”. Besides, in data set [1] (PBMCs, MTS), the “Optimal non-toxic concentration (PBMC viability not below 100% at 0.05 significance level and higher than 90%)” value came to 10 µM. In data set [2] (setting [6]), the viability at 48 h, 10 µM turned out to be 93 ± 17%; the viability at 48 h, 20 µM was 75 ± 30%; the viability at 48 h, 50 µM is 37 ± 9%; the viability at 48 h, 100 µM came out at 33 ± 12%. In addition, in data set [2] (setting [6]), the viability at 48 h, 200 µM is 35 ± 17% and the viability at 48 h, 500 µM was found to be 37 ± 20%. Also, the viability at 48 h, 100 µM in data set [3] turned out to be 8 ± 4%. Moreover, the viability at 48 h, 100 µM in data set [4] came out at 10 ± 12%. The viability at 48 h, 100 µM in data set [5] was found to be 71 ± 21%.
